Test results reported in patent publication US12473296B2, “Perk inhibiting compounds” (HiberCell, Inc., priority 2019, dated 2025).

Columns and labels:
[1] = target: EIF2AK3 (PERK) catalytic domain (amino acids 536-1116) (Homo sapiens (Human), UniProt Q9NZJ5); assay: PERK in vitro activity assay (isolated), TR-FRET kinase assay; conditions: isolated PERK enzyme, 1.5 μM ATP, GFP-eIF2a substrate; read-out: Biochemical IC50
How it was run: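 Human PERK catalytic domain (aa 536-1116) with 100-200 nM GFP-eIF2a in 50 mM HEPES pH 7.5, 10 mM MgCl2, 1.0 mM EGTA, 0.01% Brij-35; enzyme-started reaction run 45 min at room temperature. Stopped with 10 mM EDTA, 2 nM Tb-anti-phospho-eIF2a added for 90 min; IC50 from TR-FRET ratio by 4-parameter logistic fit.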

PERK = PERK (Homo sapiens (Human), UniProt Q9NZJ5); assay: PERK cellular assay (TR-FRET, HEK293-EGFP-eIF2α cells, tunicamycin-induced ER stress); type: cell-based; conditions: tunicamycin 2 hours, read-out: Cellular IC50 (μM) (EIF2a)
How it was run: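 Cells pre-incubated with inhibitor 30 min at 37 °C, then ER stress induced with […] tunicamycin for 2 h. TR-FRET read on lysates; ratio normalized to DMSO control as percent inhibition over a 10-point, 3-fold dilution series; IC50 from 4-parameter logistic fit.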

Sequence of PERK (Q9NZJ5 30-1116): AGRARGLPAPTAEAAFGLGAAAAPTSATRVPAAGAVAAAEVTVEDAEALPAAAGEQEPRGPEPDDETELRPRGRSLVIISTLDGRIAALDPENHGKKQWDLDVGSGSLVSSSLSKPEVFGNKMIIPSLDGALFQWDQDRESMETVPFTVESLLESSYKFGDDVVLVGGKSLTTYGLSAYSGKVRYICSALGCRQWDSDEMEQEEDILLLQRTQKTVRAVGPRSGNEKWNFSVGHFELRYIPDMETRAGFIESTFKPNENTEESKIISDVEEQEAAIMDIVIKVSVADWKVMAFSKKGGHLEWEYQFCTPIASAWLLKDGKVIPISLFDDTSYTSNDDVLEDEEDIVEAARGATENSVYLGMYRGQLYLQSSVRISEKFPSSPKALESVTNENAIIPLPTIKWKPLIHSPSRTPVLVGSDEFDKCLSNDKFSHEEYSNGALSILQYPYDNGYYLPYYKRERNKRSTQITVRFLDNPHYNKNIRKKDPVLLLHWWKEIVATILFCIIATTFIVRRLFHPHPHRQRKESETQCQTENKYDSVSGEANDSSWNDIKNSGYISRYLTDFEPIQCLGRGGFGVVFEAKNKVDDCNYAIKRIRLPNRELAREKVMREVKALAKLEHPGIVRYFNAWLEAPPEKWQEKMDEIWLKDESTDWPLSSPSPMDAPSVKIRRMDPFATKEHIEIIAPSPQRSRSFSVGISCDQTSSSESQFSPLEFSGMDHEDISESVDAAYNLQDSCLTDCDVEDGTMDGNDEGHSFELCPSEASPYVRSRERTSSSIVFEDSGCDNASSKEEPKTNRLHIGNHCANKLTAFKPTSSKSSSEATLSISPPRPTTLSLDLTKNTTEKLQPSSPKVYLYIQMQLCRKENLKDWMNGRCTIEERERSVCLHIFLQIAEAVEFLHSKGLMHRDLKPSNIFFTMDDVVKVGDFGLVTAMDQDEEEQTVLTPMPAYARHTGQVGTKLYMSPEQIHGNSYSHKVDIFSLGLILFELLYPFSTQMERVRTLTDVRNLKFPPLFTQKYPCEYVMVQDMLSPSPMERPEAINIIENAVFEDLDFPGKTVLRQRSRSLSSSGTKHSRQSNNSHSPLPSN
Sequence of EIF2AK3 (PERK) catalytic domain (amino acids 536-1116) (Q9NZJ5 536-1116): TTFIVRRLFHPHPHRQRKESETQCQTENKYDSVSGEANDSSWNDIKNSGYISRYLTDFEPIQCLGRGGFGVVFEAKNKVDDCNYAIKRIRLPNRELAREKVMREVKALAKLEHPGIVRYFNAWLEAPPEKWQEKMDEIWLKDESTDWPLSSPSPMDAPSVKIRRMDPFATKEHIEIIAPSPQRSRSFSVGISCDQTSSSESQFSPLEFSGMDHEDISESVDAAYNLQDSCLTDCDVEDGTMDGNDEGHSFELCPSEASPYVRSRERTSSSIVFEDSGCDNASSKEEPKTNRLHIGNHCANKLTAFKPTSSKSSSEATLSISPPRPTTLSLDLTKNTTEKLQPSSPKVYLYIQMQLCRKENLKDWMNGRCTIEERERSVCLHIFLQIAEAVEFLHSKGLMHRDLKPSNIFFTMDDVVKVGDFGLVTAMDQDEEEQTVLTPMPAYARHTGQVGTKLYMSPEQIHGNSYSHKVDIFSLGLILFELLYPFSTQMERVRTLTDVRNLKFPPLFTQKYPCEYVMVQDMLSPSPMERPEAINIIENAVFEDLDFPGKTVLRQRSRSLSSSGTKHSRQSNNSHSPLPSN

| IC50 [1] [nM] | IC50 (PERK) [µM] | SMILES |
| --- | --- | --- |
| 101 to 250 | > 5 | CNc1ccc(-c2ccc(NC(=O)C(O)c3cc(F)cc(F)c3)cc2C)cn1 (stereo not drawn) [Example 173, 2-(3,5-difluorophenyl)-2-hydroxy-N-(3-methyl-4-(6-(methylamino)pyridin-3-yl)phenyl)acetamide] |
| 101 to 250 | 4 to 5 | CNc1ncc(-c2ccc(NC(=O)C(O)c3cc(F)cc(F)c3)cc2C)cc1C(=O)NC(C)C (stereo not drawn) [Example 174, 5-(4-(2-(3,5-difluorophenyl)-2-hydroxyacetamido)-2-methylphenyl)-N-isopropyl-2-(methylamino) nicotinamide] |
| 1000 to 2000 | > 5 | CNc1ncc(-c2ccc(NC(=O)C(O)c3cc(F)cc(F)c3)cc2C)cc1C(=O)NC(C)C (stereo not drawn) [Example 175, 5-(4-(2-(3,5-difluorophenyl)-2-hydroxyacetamido)-2-methylphenyl)-N-isopropyl-2-(methylamino) nicotinamide] |
| 51 to 100 | 0.501 to 1 | Cc1cc(NC(=O)C(O)c2cc(F)cc(F)c2)ccc1-c1cnc(C)c(C(=O)NC(C)C)c1 (stereo not drawn) [Example 176, 5-(4-(2-(3,5-difluorophenyl)-2-hydroxyacetamido)-2-methylphenyl)-N-isopropyl-2-methylnicotinamide] |
| 26 to 50 | 0.251 to 0.5 | Cc1cc(NC(=O)C(O)c2cc(F)cc(F)c2)ccc1-c1cnc(C)c(C(=O)NC(C)C)c1 (stereo not drawn) [Example 177, 5-(4-(2-(3,5-difluorophenyl)-2-hydroxyacetamido)-2-methylphenyl)-N-isopropyl-2-methylnicotinamide] |
| 26 to 50 | 0.101 to 0.25 | Cc1cc(NC(=O)C(O)c2cc(F)cc(F)c2)ccc1-c1cncc(C(=O)NC(C)C)c1 (stereo not drawn) [Example 178, 5-(4-(2-(3,5-difluorophenyl)-2-hydroxyacetamido)-2-methylphenyl)-N-isopropylnicotinamide] |
| 101 to 250 | 0.501 to 1 | Cc1cc(NC(=O)C(O)c2cc(F)cc(F)c2)ccc1-c1cncc(C(=O)NC(C)C)c1 (stereo not drawn) [Example 179, 5-(4-(2-(3,5-difluorophenyl)-2-hydroxyacetamido)-2-methylphenyl)-N-isopropylnicotinamide] |
| 1000 to 2000 | > 5 | Cc1ccc(-c2ccc(NC(=O)C(O)c3cc(F)cc(F)c3)cc2C)cn1 (stereo not drawn) [Example 180, 2-(3,5-difluorophenyl)-2-hydroxy-N-(3-methyl-4-(6-methylpyridin-3-yl)phenyl)acetamide] |
| > 5000 | > 5 | Cc1ccc(-c2ccc(NC(=O)C(O)c3cc(F)cc(F)c3)cc2C)cn1 (stereo not drawn) [Example 181, 2-(3,5-difluorophenyl)-2-hydroxy-N-(3-methyl-4-(6-methylpyridin-3-yl)phenyl)acetamide] |
| 251 to 500 | 2 to 3 | Cc1cc(N(O)C(=O)C(O)c2cc(F)cc(F)c2)ccc1-c1cnc(N)c(C(=O)NC(C)C)c1 (stereo not drawn) [Example 182, 2-amino-5-(4-(2-(3,5-difluorophenyl)-N,2-dihydroxyacetamido)-2-methylphenyl)-N-isopropylnicotinamide] |
| 101 to 250 | 2 to 3 | Cc1cc(NC(=O)C(F)(F)c2ccccc2)ccc1-c1cnc(N)c(C(=O)NC(C)C)c1 [Example 183, 2-amino-5-(4-(2,2-difluoro-2-phenylacetamido)-2-methylphenyl)-N-isopropylnicotinamide] |
| 251 to 500 | 0.101 to 0.25 | Cc1cc(NC(=O)C(=O)c2cc(F)cc(F)c2)ccc1-c1cnc(N)c(C(=O)NC(C)C)c1 [Example 184, 2-amino-5-(4-(2-(3,5-difluorophenyl)-2-oxoacetamido)-2-methylphenyl)-N-isopropyl nicotinamide] |
| 1 to 25 | 0.251 to 0.5 | Cc1cccc(CC(=O)Nc2ccc(-c3cnc(N)c(C(=O)NC(C)C)c3)c(C)c2)n1 [Example 185, 2-amino-N-isopropyl-5-(2-methyl-4-(2-(6-methylpyridin-2-yl)acetamido)phenyl)nicotinamide] |
| 51 to 100 | 0.101 to 0.25 | Cc1cc(NC(=O)Cc2cc(F)cc(F)c2)ccc1-c1cnc(N)c(C(=O)NC(C)C)c1 [Example 186, 2-amino-5-(4-(2-(3,5-difluorophenyl)acetamido)-2-methylphenyl)-N-isopropylnicotinamide] |
| 51 to 100 | 0.501 to 1 | Cc1cc(NC(=O)Cc2ccccc2)ccc1-c1cnc(N)c(C(=O)NC(C)C)c1 [Example 187, 2-amino-N-isopropyl-5-(2-methyl-4-(2-phenylacetamido)phenyl)nicotinamide] |
| 251 to 500 | 2 to 3 | Cc1cc(NC(=O)CCc2ccccc2)ccc1-c1cnc(N)c(C(=O)NC(C)C)c1 [Example 188, 2-amino-N-isopropyl-5-(2-methyl-4-(3-phenylpropanamido)phenyl) nicotinamide] |
| 101 to 250 | 0.501 to 1 | Cc1cc(NC(=O)Cc2ccccc2F)ccc1-c1cnc(N)c(C(=O)NC(C)C)c1 [Example 189, 2-amino-5-(4-(2-(2-fluorophenyl)acetamido)-2-methylphenyl)-N-isopropylnicotinamide] |

| IC50 [1] [nM] | IC50 (PERK) [µM] | SMILES |
| --- | --- | --- |
| 51 to 100 | 0.501 to 1 | Cc1cc(NC(=O)Cc2cccc(F)c2)ccc1-c1cnc(N)c(C(=O)NC(C)C)c1 [Example 190, 2-amino-5-(4-(2-(3-fluorophenyl)acetamido)-2-methylphenyl)-N-isopropylnicotinamide] |
| 51 to 100 | 1 to 2 | Cc1cc(NC(=O)Cc2ccc(F)cc2)ccc1-c1cnc(N)c(C(=O)NC(C)C)c1 [Example 191, 2-amino-5-(4-(2-(4-fluorophenyl)acetamido)-2-methylphenyl)-N-isopropylnicotinamide] |
| 101 to 250 | 2 to 3 | COc1ccccc1CC(=O)Nc1ccc(-c2cnc(N)c(C(=O)NC(C)C)c2)c(C)c1 [Example 192, 2-amino-N-isopropyl-5-(4-(2-(2-methoxyphenyl)acetamido)-2-methylphenyl) nicotinamide] |
| 51 to 100 | 0.501 to 1 | COc1cccc(CC(=O)Nc2ccc(-c3cnc(N)c(C(=O)NC(C)C)c3)c(C)c2)c1 [Example 193, 2-amino-N-isopropyl-5-(4-(2-(3-methoxyphenyl)acetamido)-2-methylphenyl) nicotinamide] |
| 501 to 1000 | 2 to 3 | COc1ccc(CC(=O)Nc2ccc(-c3cnc(N)c(C(=O)NC(C)C)c3)c(C)c2)cc1 [Example 194, 2-amino-N-isopropyl-5-(4-(2-(4-methoxyphenyl)acetamido)-2-methylphenyl) nicotinamide] |
| 101 to 250 | 1 to 2 | Cc1ccc(CC(=O)Nc2ccc(-c3cnc(N)c(C(=O)NC(C)C)c3)c(C)c2)cc1 [Example 197, 2-amino-N-isopropyl-5-(2-methyl-4-(2-(p-tolyl)acetamido)phenyl)nicotinamide] |
| 26 to 50 | 0.501 to 1 | Cc1cc(NC(=O)Cc2ccccc2Cl)ccc1-c1cnc(N)c(C(=O)NC(C)C)c1 [Example 198, 2-amino-5-(4-(2-(2-chlorophenyl)acetamido)-2-methylphenyl)-N-isopropylnicotinamide] |
| 26 to 50 | 0.101 to 0.25 | Cc1cc(NC(=O)Cc2cccc(Cl)c2)ccc1-c1cnc(N)c(C(=O)NC(C)C)c1 [Example 199, 2-amino-5-(4-(2-(3-chlorophenyl)acetamido)-2-methylphenyl)-N-isopropylnicotinamide] |
| 501 to 1000 | 0.501 to 1 | Cc1cc(NC(=O)Cc2ccc(Cl)cc2)ccc1-c1cnc(N)c(C(=O)NC(C)C)c1 [Example 200, 2-amino-5-(4-(2-(4-chlorophenyl)acetamido)-2-methylphenyl)-N-isopropylnicotinamide] |
| 51 to 100 | 0.501 to 1 | Cc1cc(NC(=O)Cc2ccccc2C(F)(F)F)ccc1-c1cnc(N)c(C(=O)NC(C)C)c1 [Example 201, 2-amino-N-isopropyl-5-(2-methyl-4-(2-(2-(trifluoromethyl)phenyl)acetamido)phenyl)nicotinamide] |
| 51 to 100 | 0.101 to 0.25 | Cc1cc(NC(=O)Cc2cccc(C(F)(F)F)c2)ccc1-c1cnc(N)c(C(=O)NC(C)C)c1 [Example 202, 2-amino-N-isopropyl-5-(2-methyl-4-(2-(3-(trifluoromethyl)phenyl)acetamido)phenyl)nicotinamide] |
| 2000 to 3000 | 1 to 2 | Cc1cc(NC(=O)Cc2ccc(C(F)(F)F)cc2)ccc1-c1cnc(N)c(C(=O)NC(C)C)c1 [Example 203, 2-amino-N-isopropyl-5-(2-methyl-4-(2-(4-(trifluoromethyl)phenyl)acetamido)phenyl) nicotinamide] |
| 1 to 25 | 0.101 to 0.25 | CCc1cccc(CC(=O)Nc2ccc(-c3cnc(N)c(C(=O)NC(C)C)c3)c(C)c2)c1 [Example 205, 2-amino-5-(4-(2-(3-ethylphenyl)acetamido)-2-methylphenyl)-N-isopropylnicotinamide] |
| 251 to 500 | 2 to 3 | CCc1ccc(CC(=O)Nc2ccc(-c3cnc(N)c(C(=O)NC(C)C)c3)c(C)c2)cc1 [Example 206, 2-amino-5-(4-(2-(4-ethylphenyl)acetamido)-2-methylphenyl)-N-isopropylnicotinamide] |
| 1 to 25 | 0.251 to 0.5 | Cc1cc(NC(=O)Cc2cccc3ccccc23)ccc1-c1cnc(N)c(C(=O)NC(C)C)c1 [Example 207, 2-amino-N-isopropyl-5-(2-methyl-4-(2-(naphthalen-1-yl)acetamido)phenyl)nicotinamide] |
| 26 to 50 | 0.101 to 0.25 | Cc1cc(NC(=O)Cc2ccc3ccccc3c2)ccc1-c1cnc(N)c(C(=O)NC(C)C)c1 [Example 208, 2-amino-N-isopropyl-5-(2-methyl-4-(2-(naphthalen-2-yl)acetamido)phenyl)nicotinamide] |
